Test results published in patent publication US9096601B2 (CSPC Zhongqi Pharmaceutical Technology (Shijiazhuang) Co., …, priority 2010, dated 2015).

What was measured:
[1] = tested on: colon cancer cell strain HCT116; assay: In-vitro tumor cell proliferation inhibition, MTT; type: cell-based, human; settings: 72 hours
[2] = tested on: acute myelogenous leukemia cell strain MV4-11; assay: In-vitro tumor cell proliferation inhibition, MTT; type: cell-based, human; settings: 72 hours
PDGFRα = PDGFRα (Homo sapiens (Human), UniProt P16234); assay: Kinase inhibitory activity, isotopic labeling (γ-33P-ATP); type: biochemical; settings: compound at 10 μM
Method: (§1) The object of this assay was to test the inventive compounds for the kinase inhibitory activity in vitro. In this assay, an isotopic labeling method was used to label the γ phosphate group on ATP. EGFR (including wild type, L858R mutant type and L858R/T790M double mutant type), VEGFR2, ALK, BTK, c-KIT, c-SRC, MET, PDGFRα and FLT3 kinases were tested in vitro for the activity inhibition. Staurosporine was used as a reference molecule (or referred to as a positive control). […] The IC50 value can be obtained by the calculation of the inhibitory rates at a series of different concentrations of the tested compounds.
(§2) To a reaction tube were successively added the buffer solution (8 mM MOPS, pH 7.0, 0.2 mM EDTA, 10 mM MnCl2), the kinase to be tested (5-10 mU) (EGFR/ALK/BTK/c-KIT/c-SRC/MET/PDGFRα/VEGFR2), the substrate for the kinase to be tested (a reference material), 10 mM of the solution of magnesium acetate and γ-^33 P-ATP, and different concentrations of the tested compounds. […] The reaction was terminated with […] of the 3% phosphate buffer solution. 10 μL of the reaction liquid was titrated on the Filtermat A membrane. The membrane was washed with 75 mM of the phosphate solution thrice (5 minutes each time), and then with methanol once, and finally dried. The membrane was subjected to a scintillation counting. The value of the scintillation counting reflected the phosphorylation level of the substrate and therefore could characterize the inhibition of the kinase activity.

FLT3 = FLT3 (Homo sapiens (Human), UniProt P36888); assay: as above; type: biochemical; settings: compound at 10 μM
FLT3, sequence (P36888 27-993): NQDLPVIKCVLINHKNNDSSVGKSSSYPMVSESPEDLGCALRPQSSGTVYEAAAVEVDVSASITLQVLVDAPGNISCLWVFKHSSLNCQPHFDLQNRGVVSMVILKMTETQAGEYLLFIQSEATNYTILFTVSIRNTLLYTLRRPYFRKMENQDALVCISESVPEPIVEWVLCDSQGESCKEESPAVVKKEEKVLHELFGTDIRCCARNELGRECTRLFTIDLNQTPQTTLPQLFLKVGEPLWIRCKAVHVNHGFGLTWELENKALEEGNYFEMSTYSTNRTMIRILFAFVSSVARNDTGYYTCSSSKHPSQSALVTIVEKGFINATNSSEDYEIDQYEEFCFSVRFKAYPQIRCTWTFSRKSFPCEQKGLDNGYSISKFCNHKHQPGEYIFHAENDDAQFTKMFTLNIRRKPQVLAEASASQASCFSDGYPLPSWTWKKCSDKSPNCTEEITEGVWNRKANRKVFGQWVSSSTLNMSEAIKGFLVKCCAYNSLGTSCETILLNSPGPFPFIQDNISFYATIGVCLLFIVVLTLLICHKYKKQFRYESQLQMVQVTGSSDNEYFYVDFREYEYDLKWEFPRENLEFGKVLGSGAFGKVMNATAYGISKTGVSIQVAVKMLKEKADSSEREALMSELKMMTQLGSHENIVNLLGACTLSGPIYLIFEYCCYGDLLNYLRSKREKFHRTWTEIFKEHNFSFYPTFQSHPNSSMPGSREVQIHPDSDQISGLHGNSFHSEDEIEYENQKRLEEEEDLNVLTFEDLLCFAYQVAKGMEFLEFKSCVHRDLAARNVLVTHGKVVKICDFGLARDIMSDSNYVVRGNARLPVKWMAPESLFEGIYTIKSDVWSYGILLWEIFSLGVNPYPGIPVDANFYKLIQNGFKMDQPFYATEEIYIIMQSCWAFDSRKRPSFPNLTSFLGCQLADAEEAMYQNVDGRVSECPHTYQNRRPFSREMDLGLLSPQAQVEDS
Method: as §1, §2

BTK = BTK (Homo sapiens (Human), UniProt Q06187); assay: as above; type: biochemical; settings: compound at 10 μM
BTK, sequence (Q06187 whole entry): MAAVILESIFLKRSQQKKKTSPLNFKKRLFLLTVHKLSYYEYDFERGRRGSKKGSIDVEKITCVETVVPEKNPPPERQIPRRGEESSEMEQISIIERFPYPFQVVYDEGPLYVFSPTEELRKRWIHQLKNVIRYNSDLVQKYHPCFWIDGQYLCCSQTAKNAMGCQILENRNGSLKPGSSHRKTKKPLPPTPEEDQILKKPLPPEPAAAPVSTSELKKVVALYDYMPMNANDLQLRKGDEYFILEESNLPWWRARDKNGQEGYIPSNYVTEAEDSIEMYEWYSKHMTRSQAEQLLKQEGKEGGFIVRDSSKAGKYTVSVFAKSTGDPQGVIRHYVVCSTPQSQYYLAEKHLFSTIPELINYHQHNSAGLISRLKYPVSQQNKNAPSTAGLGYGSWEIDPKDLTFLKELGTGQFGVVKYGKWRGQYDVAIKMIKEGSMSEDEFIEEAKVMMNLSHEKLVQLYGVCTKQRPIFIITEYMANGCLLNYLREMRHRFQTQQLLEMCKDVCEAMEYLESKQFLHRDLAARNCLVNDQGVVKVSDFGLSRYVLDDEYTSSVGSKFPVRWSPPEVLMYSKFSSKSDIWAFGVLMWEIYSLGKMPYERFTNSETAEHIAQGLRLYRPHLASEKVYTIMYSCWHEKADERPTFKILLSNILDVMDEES
Method: as §1, §2

ALK = ALK (Homo sapiens (Human), UniProt Q9UM73); assay: as above; type: biochemical; settings: compound at 10 μM
Method: as §1, §2

c-KIT = c-KIT (Homo sapiens (Human), UniProt P10721); assay: as above; type: biochemical; settings: compound at 10 μM
Method: as §1, §2

MET = MET (Homo sapiens (Human), UniProt P08581); assay: as above; type: biochemical; settings: compound at 10 μM
MET, sequence (P08581 25-1390): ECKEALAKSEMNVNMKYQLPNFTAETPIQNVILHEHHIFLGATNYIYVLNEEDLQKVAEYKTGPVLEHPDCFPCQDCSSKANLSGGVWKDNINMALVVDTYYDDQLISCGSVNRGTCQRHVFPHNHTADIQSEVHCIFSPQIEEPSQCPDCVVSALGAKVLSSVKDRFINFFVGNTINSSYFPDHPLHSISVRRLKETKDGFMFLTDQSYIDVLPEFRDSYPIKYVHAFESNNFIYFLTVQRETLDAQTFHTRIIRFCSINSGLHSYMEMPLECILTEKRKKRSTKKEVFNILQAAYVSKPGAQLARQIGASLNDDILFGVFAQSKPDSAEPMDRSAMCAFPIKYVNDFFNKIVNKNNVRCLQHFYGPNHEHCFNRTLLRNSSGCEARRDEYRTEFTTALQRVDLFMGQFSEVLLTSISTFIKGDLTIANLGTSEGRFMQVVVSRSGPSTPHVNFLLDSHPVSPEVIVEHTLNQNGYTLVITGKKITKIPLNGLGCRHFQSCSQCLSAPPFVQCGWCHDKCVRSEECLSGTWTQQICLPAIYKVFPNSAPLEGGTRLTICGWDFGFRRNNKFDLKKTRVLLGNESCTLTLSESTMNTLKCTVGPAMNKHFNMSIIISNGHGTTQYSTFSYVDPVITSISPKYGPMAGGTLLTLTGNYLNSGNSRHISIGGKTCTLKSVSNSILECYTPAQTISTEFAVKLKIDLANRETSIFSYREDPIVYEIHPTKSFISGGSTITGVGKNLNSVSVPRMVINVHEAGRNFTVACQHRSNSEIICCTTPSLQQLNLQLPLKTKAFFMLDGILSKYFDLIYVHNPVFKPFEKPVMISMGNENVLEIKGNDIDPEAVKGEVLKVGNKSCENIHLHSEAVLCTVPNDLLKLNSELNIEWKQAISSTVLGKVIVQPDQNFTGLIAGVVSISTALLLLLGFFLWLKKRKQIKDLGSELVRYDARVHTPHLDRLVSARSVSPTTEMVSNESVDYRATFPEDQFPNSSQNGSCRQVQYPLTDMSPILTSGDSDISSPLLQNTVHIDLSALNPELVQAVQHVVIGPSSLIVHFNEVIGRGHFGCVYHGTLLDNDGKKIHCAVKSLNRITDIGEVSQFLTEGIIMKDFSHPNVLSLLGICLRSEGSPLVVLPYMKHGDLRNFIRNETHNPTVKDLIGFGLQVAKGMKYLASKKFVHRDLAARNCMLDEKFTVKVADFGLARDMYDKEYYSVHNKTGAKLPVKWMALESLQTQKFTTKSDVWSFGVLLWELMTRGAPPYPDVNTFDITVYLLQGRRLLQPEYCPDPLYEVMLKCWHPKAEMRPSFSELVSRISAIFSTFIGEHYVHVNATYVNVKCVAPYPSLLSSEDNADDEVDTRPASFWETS
Method: as §1, §2

VEGFR2 = VEGFR2 (Homo sapiens (Human), UniProt P35968); assay: as above; type: biochemical; settings: ATP 90 μM (Km)
VEGFR2, sequence (P35968 20-1356): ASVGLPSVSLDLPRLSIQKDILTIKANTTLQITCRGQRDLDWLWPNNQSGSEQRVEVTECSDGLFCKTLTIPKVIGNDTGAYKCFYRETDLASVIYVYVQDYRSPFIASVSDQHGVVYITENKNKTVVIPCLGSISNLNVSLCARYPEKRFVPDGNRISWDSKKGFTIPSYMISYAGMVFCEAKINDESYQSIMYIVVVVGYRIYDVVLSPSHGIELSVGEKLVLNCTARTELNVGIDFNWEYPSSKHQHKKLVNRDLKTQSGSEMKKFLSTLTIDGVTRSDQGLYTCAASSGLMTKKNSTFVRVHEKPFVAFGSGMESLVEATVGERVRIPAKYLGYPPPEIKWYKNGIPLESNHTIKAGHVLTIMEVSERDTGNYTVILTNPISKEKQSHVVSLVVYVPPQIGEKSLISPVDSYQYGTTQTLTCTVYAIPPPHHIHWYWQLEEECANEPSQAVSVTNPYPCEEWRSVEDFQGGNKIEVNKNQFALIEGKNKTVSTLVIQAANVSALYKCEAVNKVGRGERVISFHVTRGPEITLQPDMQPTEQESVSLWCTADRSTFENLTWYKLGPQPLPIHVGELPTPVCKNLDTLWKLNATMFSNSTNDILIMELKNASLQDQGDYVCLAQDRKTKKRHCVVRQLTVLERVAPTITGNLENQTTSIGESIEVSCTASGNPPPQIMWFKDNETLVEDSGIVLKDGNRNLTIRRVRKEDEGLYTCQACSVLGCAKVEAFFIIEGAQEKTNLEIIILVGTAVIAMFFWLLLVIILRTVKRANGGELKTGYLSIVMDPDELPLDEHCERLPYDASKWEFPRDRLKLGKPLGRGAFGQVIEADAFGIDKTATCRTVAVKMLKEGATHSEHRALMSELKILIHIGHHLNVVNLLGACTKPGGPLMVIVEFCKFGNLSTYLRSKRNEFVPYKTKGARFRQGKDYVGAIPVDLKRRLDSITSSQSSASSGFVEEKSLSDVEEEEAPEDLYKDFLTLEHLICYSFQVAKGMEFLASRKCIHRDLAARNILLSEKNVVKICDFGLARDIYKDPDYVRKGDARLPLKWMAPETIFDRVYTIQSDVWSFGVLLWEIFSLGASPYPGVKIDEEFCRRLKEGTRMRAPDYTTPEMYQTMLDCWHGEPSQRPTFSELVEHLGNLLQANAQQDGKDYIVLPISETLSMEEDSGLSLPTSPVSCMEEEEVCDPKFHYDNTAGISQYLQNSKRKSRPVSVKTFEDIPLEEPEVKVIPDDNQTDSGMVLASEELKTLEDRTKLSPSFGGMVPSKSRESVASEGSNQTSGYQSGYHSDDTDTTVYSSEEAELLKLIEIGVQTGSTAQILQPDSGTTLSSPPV
Method: as §1, §2

c-SRC = c-SRC (Homo sapiens (Human), UniProt P12931); assay: as above; type: biochemical; settings: compound at 10 μM
c-SRC, sequence (P12931 whole entry, looked up): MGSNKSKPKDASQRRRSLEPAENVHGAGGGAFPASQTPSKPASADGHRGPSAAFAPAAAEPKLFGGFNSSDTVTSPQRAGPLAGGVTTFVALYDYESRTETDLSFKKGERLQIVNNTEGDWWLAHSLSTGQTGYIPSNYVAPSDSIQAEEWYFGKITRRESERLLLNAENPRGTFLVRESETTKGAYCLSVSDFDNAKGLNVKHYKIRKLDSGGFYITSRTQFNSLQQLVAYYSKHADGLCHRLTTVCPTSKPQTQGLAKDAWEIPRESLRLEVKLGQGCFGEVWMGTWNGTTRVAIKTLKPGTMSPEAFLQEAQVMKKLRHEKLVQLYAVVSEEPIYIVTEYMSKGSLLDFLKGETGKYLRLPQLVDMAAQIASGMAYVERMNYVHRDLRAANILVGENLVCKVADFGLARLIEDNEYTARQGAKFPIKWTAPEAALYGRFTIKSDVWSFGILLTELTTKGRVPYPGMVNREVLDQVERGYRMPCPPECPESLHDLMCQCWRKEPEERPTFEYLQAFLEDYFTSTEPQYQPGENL
Method: as §1, §2

| SMILES | IC50 [1] | IC50 [2] | The kinase activity inhibitory rate (%) by the tested compounds at 10 μM PDGFRα (PDGFRα) | The kinase activity inhibitory rate (%) by the tested compounds at 10 μM FLT3 (FLT3) | The kinase activity inhibitory rate (%) by the tested compounds at 10 μM BTK (BTK) | The kinase activity inhibitory rate (%) by the tested compounds at 10 μM ALK (ALK) | The kinase activity inhibitory rate (%) by the tested compounds at 10 μM c-KIT (c-KIT) | The kinase activity inhibitory rate (%) by the tested compounds at 10 μM MET (MET) | IC50 (VEGFR2) | The kinase activity inhibitory rate (%) by the tested compounds at 10 μM c-SRC (c-SRC) |
| --- | --- | --- | --- | --- | --- | --- | --- | --- | --- | --- |
| COc1ccc(Nc2nc3cnc(Nc4ccc(N5CCN(C)CC5)cc4)nc3n2C(C)C)cc1 [Compounds 8-18] | 6290 nM | 183 nM | 60% | 75% | 56% | 13% | 76% | 7% | 21 nM | 93% |
| CC(C)n1c(Nc2ccc(NC(=O)Nc3ccc(F)c(Cl)c3)cc2)nc2cnc(Nc3ccc(N4CCN(C)CC4)cc3)nc21 [Compounds 8-21] | 772 nM | 279 nM | 100% | 78% | 92% | 97% | 101% | 99% | > 1000 nM | 98% |
| CC(C)n1c(Nc2ccc(C(=O)Nc3cccc(F)c3)cc2)nc2cnc(Nc3ccc(N4CCN(C)CC4)cc3)nc21 [Compounds 8-22] | 1830 nM | 283 nM | 43% | 87% | 63% | 70% | 10% | 69% | > 1000 nM | 98% |
| CN1CCN(c2ccc(Nc3ncc4nc(Nc5ccccc5)n(C5CC5)c4n3)cc2)CC1 [Compounds 8-23] | > 10000 nM | 241 nM | 28% | 68% | 30% | 3% | 26% | 1% | > 1000 nM | 83% |
| CN1CCN(c2ccc(Nc3ncc4nc(Nc5ccccc5)n(C)c4n3)cc2)CC1 [Compounds 8-24] | 1380 nM | 288 nM | 29% | 75% | 14% | 8% | 48% | 0% | > 1000 nM | 75% |
| CN1CCN(c2ccc(Nc3ncc4nc(Nc5ccccc5)[nH]c4n3)cc2)CC1 [Compounds 8-25] | > 10000 nM | 7900 nM | 21% | 32% | 45% | 13% | 8% | 0% | > 1000 nM | 78% |
| CC(C)n1c(Nc2ccc(C(F)(F)F)cc2)nc2cnc(Nc3ccc(N4CCN(C)CC4)cc3)nc21 [Compounds 8-27] | > 1000 nM | 88 nM | 68% | 83% | 74% | 30% | 93% | 36% | 9 nM | 98% |
| CC(C)n1c(Nc2cccnc2)nc2cnc(Nc3ccc(N4CCN(C)CC4)cc3)nc21 [Compounds 8-29] | 2480 nM | 4 nM | 42% | 99% | 60% | 15% | 36% | 50% | > 1000 nM | 97% |
| CC(C)n1c(NC2CCCCC2)nc2cnc(Nc3ccc(N4CCN(C)CC4)cc3)nc21 [Compounds 8-30] | > 10000 nM | 7960 nM | 21% | 43% | 25% | 8% | 0% | 0% | > 1000 nM | 67% |
| C=CC(=O)Nc1cccc(Nc2ncc3nc(Nc4ccccc4)n(C(C)C)c3n2)c1 [Compounds 8-38] | 443 nM | 730 nM | 55% | 86% | 93% | 22% | 63% | 74% | > 1000 nM | 93% |
